Data set [1] addresses T1, postsynaptic alpha-adrenergic receptors (Rattus norvegicus, UniProt P43140).
T1 construct: causes contraction of the isolated vas deferens; from tissue; host or cells: isolated rat vas deferens
T1 sequence (P43140 1-466): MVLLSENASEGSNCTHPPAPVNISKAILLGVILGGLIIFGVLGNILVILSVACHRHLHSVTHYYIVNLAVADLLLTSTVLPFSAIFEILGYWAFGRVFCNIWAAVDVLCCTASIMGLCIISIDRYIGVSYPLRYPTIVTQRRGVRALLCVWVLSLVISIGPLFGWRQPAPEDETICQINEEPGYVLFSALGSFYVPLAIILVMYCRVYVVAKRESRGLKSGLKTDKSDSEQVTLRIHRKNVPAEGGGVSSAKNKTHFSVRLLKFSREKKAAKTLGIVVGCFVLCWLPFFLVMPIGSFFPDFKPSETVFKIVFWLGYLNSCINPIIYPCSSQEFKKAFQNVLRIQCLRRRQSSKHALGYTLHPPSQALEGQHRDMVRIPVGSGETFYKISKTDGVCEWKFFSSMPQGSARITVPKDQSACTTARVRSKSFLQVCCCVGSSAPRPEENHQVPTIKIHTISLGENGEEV
In words: Alpha-blocking activity towards norepinephrine on isolated rat vas deferens. It is filed as biochemical. The note with it: -log of concentration requiring doubled norepinephrine, read-out: pA2 (converted). The protocol:
Stimulation of the postsynaptic alpha-adrenergic receptors by norepinephrine causes contraction of the isolated vas deferens.
The concentration of product in whose presence the norepinephrine concentration must be doubled in order to obtain the same effect as in the absence of said product is determined. The logarithm of this concentration, with the opposite sign, constitutes the pA2 of the products.
Their alpha-blocking activity is high since it appears for low concentrations of between 10^-6 M and 10^-8 M.

Data set [2] relates to hypertension induced by norepinephrine. The data set is described as follows: Inhibitory activity towards hypertension induced by norepinephrine in anesthetized rabbits. The format is in vivo. The note with it: anesthetized male rabbits, intravenous; for ED50: Oryctolagus cuniculus, read-out: ID50 (50% inhibition of norepinephrine-induced hypertension). The protocol: The blood pressure is measured by catheterization of the left carotid artery of anesthetized male rabbits. An increase in blood pressure is induced by an intravenous injection of norepinephrine. This hypertension can be inhibited by the prior administration of molecules with an alpha-blocking potential.
These are presented in Table 6 in the form of the 50% inhibitory dose (ID50), which is defined as the dose of product which, when administered intravenously, causes a 50% inhibition of the hypertension induced by norepinephrine.

Data set [3] deals with lethal effect of norepinephrine. In words: Adrenolytic activity in vivo on the lethal effect of norepinephrine in rats. The conditions noted are these: for ED50: Rattus norvegicus, wake male rats, norepinephrine 0.4 mg.kg^-1 intravenous, prior administration of product, read-out: ED50 (dose which protects 50% of the animals); for adrenolytic activity in the whole animals: rats, in words. The protocol:
The intravenous injection of norepinephrine (0.4 mg.kg^-1) into wake male rats causes the death of 100% of the animals. The prior administration of a substance which has an alpha-blocking property makes it possible to reduce this toxicity.
The results are expressed in the form of the 50% effective dose (ED50), i.e. the dose in mg.kg^-1 which protects 50% of the animals (Table 5).

Data set [4] in a line: Acute toxicity in mice (oral, LD50). The note with it: mouse, in vivo, male mice, single dose, 14-day observation. The protocol: The products were administered orally in a single dose to male mice with an average weight of 22 g. The mortality was recorded after a 14-day observation period.
The results are expressed in the form of the 50% lethal dose (LD50), i.e. the theoretical dose in mg.kg^-1, administered orally, which causes the death of 50% of the animals.
The majority of the molecules have an LD50 of more than 1 g.kg^-1. These are therefore products with a low toxicity after a single administration.

For data set [5], the system named is femoral blood pressure and heart rate. The data set is described as follows: Cardiovascular activity (blood pressure and heart rate) in anesthetized rats. It is filed as in vivo. The conditions noted are these: for Heart rate, maximum effect in % / ED25: I.V., pentobarbital-anesthetized rats; for ED25: Rattus norvegicus, iv, 25% drop in average blood pressure. On the procedure:
The cardiovascular effects of three products were studied in rats anesthetized with pentobarbital and placed under artificial respiration. The femoral blood pressure and the heart rate are recorded by means of a GOULD-BRUSH apparatus.
The products are administered intravenously in increasing doses. Three animals are tested per product. The dose which causes a 25% drop in average blood pressure (ED25) was evaluated for each product and compared with nicardipine 1 to 5 min after administration.
The products have dose-dependent hypotensive effects but have little or no effect on the heart rate (Table 7). The most hypotensive in terms of the effective dose is B 1395 (ED25 of 0.004 mg.kg^-1).

Where [6] appears, read: 1 min, 1 minute, read-out: Blood pressure: Hypotension, ED25 at 1 minute.
The mark [7] stands for this setting: 5 min, 5 minutes, read-out: Blood pressure: Hypotension, ED25 at 5 minutes.

Counter-ions that a name gives are not always drawn. Like-named read-outs stand apart in the source and are kept apart here. Some results are limits rather than exact numbers.

Regarding `Cc1ncsc1OCCN1CCN(c2ccccc2)CC1` [B 1216, 4-methyl-5-[2-(4-phenylpiperazin-1-yl)ethoxy]thiazole], the Kb in data set [1] is 89.1 nM. In addition, the ED50 in data set [2] is more than 3 mg/kg; in data set [3], 33 mg/kg. For the same compound, the LD50 at 336 h in data set [4] was more than 1000 mg/kg.
As for `CCOc1ccccc1N1CCN(CCOc2scnc2C)CC1` [B 1258, 4-methyl-5-[2-(4-o-ethoxyphenylpiperazin-1-yl)ethoxy]thiazole], the Kb in data set [1] was 15.8 nM. Moreover, the ED50 was 5.6 mg/kg in data set [2] and 6.5 mg/kg in data set [3]. Moreover, in data set [3], the “adrenolytic activity in the whole animals” value (“adrenolytic activity” below) is on record as “very active”. Further, the “Heart rate, maximum effect in %” value in data set [5] is reported as -5.6%. For the same compound, the ED25 was found to be 0.8 mg/kg in data set [5] (setting [6]) and 1 mg/kg in data set [5] (setting [7]). The LD50 at 336 h in data set [4] was more than 1000 mg/kg.
On to `Cc1ncsc1OCCN1CCN(c2ccccc2F)CC1` [B 1305, 4-methyl-5-[2-(4-o-fluorophenylpiperazin-1-yl)-ethoxy]thiazole], for which, in data set [1], the Kb was 81.3 nM. The ED50 in data set [2] turned out to be 3 mg/kg; in data set [3], 35 mg/kg. Also, the LD50 at 336 h in data set [4] is more than 1000 mg/kg.
The like results for `CCCOc1ccccc1N1CCN(CCOc2scnc2C)CC1` [B 1342, 4-methyl-5-[2-(4-o-propoxyphenylpiperazin-1-yl)-ethoxy]thiazole] were, in that order, 16.2 nM, 7.3 mg/kg, 4 mg/kg and more than 1000 mg/kg.
As for `CCOc1ccccc1N1CCN(CC(O)COc2scnc2C)CC1` (stereo not drawn) [B 1392, 3-(4-o-ethoxyphenylpiperazin-1-yl)-1-(4-methylthiazolyl-5-oxy)propan-2-ol], the Kb in data set [1] was 13.2 nM. The ED50 in data set [2] came to 2.6 mg/kg; in data set [3] it was 0.3 mg/kg. Besides, in data set [3], the “adrenolytic activity” value was “very active”. For the same compound, in data set [5], the “Heart rate, maximum effect in %” value is -11.2%. Moreover, the ED25 in data set [5] (setting [6]) worked out at 0.024 mg/kg; in data set [5] (setting [7]), 0.048 mg/kg. The compound further displayed an LD50 at 336 h in data set [4] of 260 mg/kg.
Turning to `CCCOc1ccccc1N1CCN(CC(O)COc2scnc2C)CC1` (stereo not drawn) [B 1395, 3-(4-o-propoxyphenylpiperazin-1-yl)-1-(4-methylthiazolyl-5-oxy)propan-2-olmonohydrochloride], the Kb in data set [1] is 20 nM. The ED50 in data set [2] and in data set [3] was 0.2 mg/kg each time. The active dose result in data set [2] was “less than 1 mg.kg^-1”. The “effectiveness against norepinephrine-induced hypertension” value in data set [2] (in words) is on record as “particularly effective”. Moreover, in data set [3], the “adrenolytic activity” value is listed as “very active”. Besides, the “hypotensive potential compared with nicardipine” value in data set [5] (ED25 values 5 min after I.V. injection, in words) is “on a level with that of nicardipine”. Moreover, the “Heart rate, maximum effect in %” value in data set [5] is on record as -4%. The ED25 in data set [5] (setting [6]) came out at 0.004 mg/kg; in data set [5] (setting [7]) it was 0.1 mg/kg. This compound also displayed an LD50 at 336 h in data set [4] of 515 mg/kg.

For orientation: LD50 means the dose at which mortality reaches 50%. Higher therefore signals a less toxic substance.

The record behind these values is patent US5322846A, “4-methylthiazole derivatives, their methods of preparation and the pharmaceutical compositions in which they are present” (Institut de Recherches Chimiques et Biologiques Appliquees …, priority 1990, dated 1994).
